Source: the CheMixHub viscosity set

Assay: xn = mol fraction of the nth substance listed

O=C1CCCO1 + O
viscosity [mPa·s]
Settings | 298.15 K | 303.15 K | 308.15 K | 313.15 K | 318.15 K | 323.15 K
101 kPa, x1 = 0.0503 | 1.233 | 1.096 | 0.9821 | 0.8569 | 0.8041 | –
101 kPa, x1 = 0.0995 | 1.481 | 1.312 | 1.171 | 1.031 | 0.9551 | –
101 kPa, x1 = 0.1997 | 1.783 | 1.577 | 1.407 | 1.248 | 1.143 | –
101 kPa, x1 = 0.2994 | 1.896 | 1.686 | 1.509 | 1.346 | 1.232 | –
101 kPa, x1 = 0.3997 | 1.915 | 1.711 | 1.538 | 1.379 | 1.266 | –
101 kPa, x1 = 0.499 | 1.875 | 1.688 | 1.528 | 1.379 | 1.273 | –
101 kPa, x1 = 0.5994 | – | 1.637 | 1.493 | 1.356 | 1.26 | –
101 kPa, x1 = 0.701 | 1.754 | 1.603 | 1.471 | 1.343 | 1.255 | –
101 kPa, x1 = 0.7995 | 1.716 | 1.578 | 1.457 | 1.337 | 1.256 | –
101 kPa, x1 = 0.8996 | 1.697 | 1.569 | 1.457 | 1.343 | 1.267 | –
101 kPa, x2 = 0.3 | 1.645 | – | – | – | – | –
101 kPa, x2 = 0.9 | 1.385 | – | – | – | – | –
101.33 kPa, x2 = 0.0898 | – | 1.56 | – | 1.339 | – | 1.163
101.33 kPa, x2 = 0.2337 | – | 1.595 | – | 1.349 | – | 1.159
101.33 kPa, x2 = 0.6207 | – | 1.674 | – | 1.349 | – | 1.112
101.33 kPa, x2 = 0.9031 | – | 1.257 | – | 1.005 | – | 0.8246

C[N+](C)(C)CC(=O)[O-] + O=C1O[C@H]([C@@H](O)CO)C(O)=C1O
Settings | viscosity [mPa·s]
298.15 K, 101.33 kPa, x2 = 0.5 | 721.2

COc1ccccc1O + CC(C)=O
303.15 K, 101 kPa
Settings | viscosity [mPa·s]
x2 = 0.1 | 3.67
x2 = 0.2 | 2.95
x2 = 0.3 | 2.35
x2 = 0.4 | 1.82
x2 = 0.5 | 1.26
x2 = 0.6 | 1.03
x2 = 0.7 | 0.755
x2 = 0.8 | 0.573
x2 = 0.9 | 0.44

C[N+](C)(C)CC(=O)[O-] + CC(O)C(=O)O
viscosity [mPa·s]
Settings | 293.15 K | 298.15 K | 303.15 K | 308.15 K | 313.15 K | 318.15 K | 323.15 K
100 kPa, x2 = 0.667 | – | 1266 | 818.6 | 544.6 | 374.6 | 260.5 | 190.2
100 kPa, x2 = 0.833 | 386.6 | 245.3 | 167.7 | 120.4 | 86.1 | 65.5 | 50.6
101 kPa, x1 = 0.5 | – | 17780 | – | – | – | 6043 | –

C1COCCO1 + OCCO
viscosity [mPa·s], 100 kPa
Settings | x1 = 0.1014 | x1 = 0.2054 | x1 = 0.2968 | x1 = 0.3998 | x1 = 0.4966 | x1 = 0.5992 | x1 = 0.7005 | x1 = 0.7985 | x1 = 0.8969
293.15 K | 15.53 | 11.26 | 8.022 | 5.534 | 3.77 | 2.758 | 2.223 | 1.737 | 1.405
298.15 K | 12.4 | 9.243 | 6.602 | 4.535 | 3.152 | 2.436 | 1.983 | 1.569 | 1.329
303.15 K | 10.21 | 7.423 | 5.425 | 3.682 | – | 2.169 | 1.78 | 1.401 | –

Nc1cccc(Cl)c1Cl + COCCO
313.15 K, 101 kPa
Settings | viscosity [mPa·s]
x1 = 0.08697 | 1.48
x1 = 0.1819 | 1.74
x1 = 0.2858 | 2.04
x1 = 0.4001 | 2.33
x1 = 0.5264 | 2.63
x1 = 0.6667 | 2.96
x1 = 0.8236 | 3.25

COc1ccccc1O + CN(C)c1ccccc1
303.15 K, 101 kPa
Settings | viscosity [mPa·s]
x2 = 0.1 | 3.71
x2 = 0.2 | 3.21
x2 = 0.3 | 2.84
x2 = 0.4 | 2.46
x2 = 0.5 | 2.16
x2 = 0.6 | 1.89
x2 = 0.7 | 1.65
x2 = 0.8 | 1.46
x2 = 0.9 | 1.31

C1=C[C@H]2[C@@H](C1)[C@H]1C=C[C@@H]2C1 + Cc1ccc(C)cc1
viscosity [mPa·s], 101.2 kPa
Settings | x1 = 0.1024 | x1 = 0.1971 | x1 = 0.3006 | x1 = 0.3993 | x1 = 0.4999 | x1 = 0.6007 | x1 = 0.7014 | x1 = 0.8001 | x1 = 0.8993
293.15 K | 0.7661 | 0.8509 | 0.9724 | 1.127 | 1.347 | 1.626 | 2.014 | 2.625 | 3.5
298.15 K | 0.7144 | 0.7986 | 0.9075 | 1.04 | 1.229 | 1.483 | 1.85 | 2.402 | 3.126
303.15 K | 0.6724 | 0.7508 | 0.8496 | 0.9666 | 1.141 | 1.367 | 1.693 | 2.174 | 2.81
308.15 K | 0.6225 | 0.7021 | 0.7934 | 0.9051 | 1.066 | 1.279 | 1.58 | 1.995 | 2.529
313.15 K | 0.5997 | 0.6653 | 0.7493 | 0.8554 | 1.001 | 1.19 | 1.457 | 1.826 | 2.271
318.15 K | 0.5879 | 0.6586 | 0.7357 | 0.8296 | 0.9662 | 1.138 | 1.371 | 1.689 | 2.104

C[N+](C)(C)CC(=O)[O-] + O=C(O)CC(O)(CC(=O)O)C(=O)O
101.3 kPa, x1 = 0.333
Settings | viscosity [mPa·s]
298 K | 36920
323 K | 2775

C1COCCO1 + CCCCCCCC
viscosity [mPa·s], 101 kPa
Settings | x1 = 0.1324 | x1 = 0.2242 | x1 = 0.3234 | x1 = 0.4124 | x1 = 0.5114 | x1 = 0.6124 | x1 = 0.7332 | x1 = 0.8231 | x1 = 0.9222
308.15 K | 0.453 | 0.462 | 0.478 | 0.503 | 0.542 | 0.596 | 0.68 | 0.766 | 0.881
313.15 K | 0.431 | 0.44 | 0.452 | 0.476 | 0.512 | 0.561 | 0.64 | 0.717 | 0.828
318.15 K | 0.41 | 0.417 | 0.429 | 0.45 | 0.484 | 0.529 | 0.601 | 0.672 | 0.776
